Measurements from US8759386B2, “Pyrazole compounds as CRTH2 antagonists” (Boehringer Ingelheim International GmbH, priority 2011, dated 2014).

Target: human CRTH2 receptor (Homo sapiens (Human), UniProt Q9Y5Y4)
Assay: CRTH2 receptor radioligand binding assay (SPA, [3H]-PGD2, CHO-K1-hCRTH2 cell membranes)
Details: displacement of [3H]-PGD2 from CHO-K1-hCRTH2 membranes
Protocol: Preparation of Human CRTH2 Receptor Membranes and Radioligand Binding Assay
The binding of CRTH2 antagonists is determined using membranes prepared from Chinese hamster ovary cells (CHO-K1 cells) transfected with the human CRTH2 receptor (CHO-K1-hCRTH2 cells, Perkin Elmer, Cat No ES-561-C). To produce cell membranes the CHO-K1-hCRTH2 cells are cultured in suspension in CHO SFMII medium supplemented with 400 μg/mL G418. The cells are harvested by centrifugation at 300 g for 10 min at room temperature. The cell pellet is resuspended in Phosphate Buffer Saline (PBS) including a protease inhibitor mix (Complete, Roche) and adjusted to a concentration of 10E7 cells/mL. The CHO-K1-hCRTH2 cells are disrupted by nitrogen […] to obtain the membrane preparation. Cell debris is removed by centrifugation (500 g at 4° C., 30 min) and the supernatant is transferred into fresh tubes followed by a second centrifugation at 40000 g for 1 hour at 4° C. to sediment the membranes. The membranes are suspended in SPA incubation buffer (50 mM Tris HCl, 10 mM MgCl2, 150 mM NaCl, 1 mM EDTA, pH 7.4) without bovine serum albumin, homogenized by passing through a single use needle (Terumo, 23G×1″), and stored in aliquots at −80° C.
The CRTH2 receptor binding assay is performed in a scintillation proximity assay (SPA) format with the radioligand [^3H]-PGD2 (Perkin Elmer, NET616000MC). CHO-K1-hCRTH2 cell membranes are again homogenized by passing through a single use needle (Terumo, 23G×1″) and diluted in SPA incubation buffer in suitable concentrations (0.5-10 μg protein/well). The SPA assay is set up in 96 well microtiter plates (Perkin Elmer, Cat No. 6005040) in SPA incubation buffer with a final volume of 200 μL per well and final concentration of 50 mM Tris-HCl, 10 mM MgCl2, 150 mM NaCl, 1 mM EDTA pH 7.4, 0.1% bovine serum albumin). The SPA assay mixture contains 60 μl of the membrane suspension, 80 μL of Wheat Germ Agglutinin coated PVT beads (GE Healthcare, RPNQ-0001, 0.3 mg/well), 40 μL of [^3H]-PGD2 diluted in SPA buffer to a final concentration of 1 nM (50 000 dpm) and 20 μL of the test compound (dissolved in dimethylsulfoxide). The SPA assay mixture is incubated for 3 h at room temperature. Bound radioactivity is determined with a scintillation counter (Micro Beta Trilux, Wallac). The binding of [^3H]-PGD2 to CHO-K1-hCRTH2 cell membranes is determined in the absence (total binding, Bo) and presence (non-specific binding, NSB) of unlabelled PGD2 (1 μM, Cayman Chemical, Cat No 12010) or a reference CRTH2 antagonist (10 μM CAY10471, Cayman Chemical, Cat No 10006735). Determination of the affinity of a test compound is calculated by subtraction of the non-specific binding (NSB) from the total binding (Bo) or the binding in the presence of the test compound (B) at a given compound concentration. The NSB value is set to 100% inhibition. The Bo-NSB value is set to 0% inhibition.
% inhibition values were obtained at a defined compound concentration, e.g. at 1 μM, % inhibition of the test compound was calculated by the formula 100−((B−NSB)*100/(Bo−NSB)). % inhibition values above 100% are founded by assay variance.

[1] = Table 1, compounds of formula Ia″
[2] = Table 2, compounds of formula Ib″

human CRTH2 receptor, sequence (Q9Y5Y4 whole entry): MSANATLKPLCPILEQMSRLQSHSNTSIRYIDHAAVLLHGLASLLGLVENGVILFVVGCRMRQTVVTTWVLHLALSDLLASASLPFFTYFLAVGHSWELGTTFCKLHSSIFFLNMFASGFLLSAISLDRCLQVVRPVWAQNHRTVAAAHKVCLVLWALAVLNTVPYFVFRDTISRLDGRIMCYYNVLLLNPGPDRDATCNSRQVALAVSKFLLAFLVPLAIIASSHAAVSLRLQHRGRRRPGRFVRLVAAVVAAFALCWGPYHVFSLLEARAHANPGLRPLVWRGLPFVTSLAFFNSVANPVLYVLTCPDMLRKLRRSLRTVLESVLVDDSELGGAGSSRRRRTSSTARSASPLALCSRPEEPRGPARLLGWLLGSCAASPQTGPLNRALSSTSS

Cc1nn(Cc2ccc(NC(=O)c3cc4ccc(F)cc4[nH]3)cc2)c(C)c1CC(=O)O [Compound 11]
Ki [1]: 200 pM

Cc1nn(Cc2ccc(NC(=O)c3oc4c(F)cccc4c3C)cc2)c(C)c1CC(=O)O [Compound 7]
Ki [1]: 1300 pM

CCc1c(C(=O)Nc2ccc(Cn3nc(C)c(CC(=O)O)c3C)cc2)oc2c(F)cccc12 [Compound 34]
Ki [1]: 300 pM

Cc1nn(Cc2ccc(NC(=O)c3c(C)c4ccccc4n3C)cc2)c(C)c1CC(=O)O [Compound 13]
Ki [1]: 63900 pM

Cc1nn(Cc2ccc(NC(=O)c3cc4ccccc4n3C)cc2F)c(C)c1CC(=O)O [Compound 30]
Ki [1]: 1000 pM

CCc1nn(Cc2ccc(NC(=O)c3cc4ccccc4n3CC)cc2)c(CC)c1CC(=O)O [Compound 22]
Ki [1]: 200 pM

CCCCn1c(C(=O)Nc2ccc(Cn3nc(C)c(CC(=O)O)c3C)c(F)c2)cc2ccccc21 [Compound 53]
Ki [1]: 200 pM

CCc1nn(Cc2ccc(NC(=O)c3cc4ccccc4[nH]3)cc2)c(CC)c1CC(=O)O [Compound 20]
Ki [1]: 300 pM

Cc1nn(Cc2ccc(NC(=O)c3cc4ccccc4o3)cc2Cl)c(C)c1CC(=O)O [Compound 5]
Ki [1]: 800 pM

CCn1c(C(=O)Nc2ccc(Cn3nc(C)c(CC(=O)O)c3C)c(F)c2)cc2ccccc21 [Compound 31]
Ki [1]: 200 pM

CCCCn1c(C(=O)Nc2ccc(Cn3nc(C)c(CC(=O)O)c3C)c(F)c2)cc2cc(F)ccc21 [Compound 55]
Ki [1]: 100 pM

CCCn1c(C(=O)Nc2ccc(Cn3nc(C)c(CC(=O)O)c3C)c(F)c2)cc2ccc(F)cc21 [Compound 42]
Ki [1]: 100 pM

COCc1c(C(=O)Nc2ccc(Cn3nc(C)c(CC(=O)O)c3C)c(F)c2)oc2ccccc12 [Compound 43]
Ki [1]: 2300 pM

Cc1nn(Cc2ccc(NC(=O)c3cc4ccccc4[nH]3)cc2)c(C)c1CC(=O)O [Compound 10]
Ki [1]: 200 pM

CCc1c(C(=O)Nc2ccc(Cn3nc(C)c(CC(=O)O)c3C)c(F)c2)oc2ccc(F)cc12 [Compound 47]
Ki [1]: 900 pM

Cc1nn(Cc2ccc(NC(=O)c3cc4ccccc4n3Cc3ccccc3)cc2)c(C)c1CC(=O)O [Compound 18]
Ki [1]: < 100 pM

CCc1nn(Cc2ccc(NC(=O)c3c(C)c4ccccc4n3C)cc2)c(CC)c1CC(=O)O [Compound 24]
Ki [1]: 9900 pM

Cc1nn(Cc2ccc(NC(=O)c3cc4cc(Cl)ccc4o3)cc2)c(C)c1CC(=O)O [Compound 8]
Ki [1]: 300 pM

Cc1nn(Cc2ccc(NC(=O)c3cc4ccccc4n3Cc3ccccc3)cc2F)c(C)c1CC(=O)O [Compound 3]
Ki [1]: 200 pM

COc1ccc2oc(C(=O)Nc3ccc(Cn4nc(C)c(CC(=O)O)c4C)c(F)c3)c(C)c2c1 [Compound 49]
Ki [1]: 100 pM

Cc1nn(Cc2ccc(NC(=O)c3oc4ccc(Cl)cc4c3C)cc2F)c(C)c1CC(=O)O [Compound 44]
Ki [1]: 300 pM

CCn1c(C(=O)Nc2ccc(Cn3nc(C)c(CC(=O)O)c3C)cc2)cc2ccccc21 [Compound 17]
Ki [1]: 400 pM

Cc1nn(Cc2ccc(NC(=O)c3csc4ccccc34)cc2)c(C)c1CC(=O)O [Compound 59]
Ki [2]: 3800 pM

Cc1nn(Cc2ccc(NC(=O)c3cc4cc(F)ccc4n3C)cc2F)c(C)c1CC(=O)O [Compound 51]
Ki [1]: 400 pM

COc1ccc2[nH]c(C(=O)Nc3ccc(Cn4nc(C)c(CC(=O)O)c4C)cc3)c(C)c2c1 [Compound 14]
Ki [1]: 100 pM

Cc1nn(Cc2ccc(NC(=O)c3c[nH]c4ccccc34)cc2)c(C)c1CC(=O)O [Compound 58]
Ki [2]: 37200 pM

CCn1c(C(=O)Nc2ccc(Cn3nc(C)c(CC(=O)O)c3C)c(F)c2)cc2ccc(F)cc21 [Compound 41]
Ki [1]: 100 pM

Cc1nn(Cc2ccc(NC(=O)c3oc4c(Cl)cccc4c3C)cc2)c(C)c1CC(=O)O [Compound 33, (1-(4-[(7-Chloro-3-methylbenzofuran-2-carbonyl)amino]benzyl)-3,5-dimethyl-1H-pyrazol-4-yl)acetic acid]
Ki [1]: 2200 pM

Cc1nn(Cc2ccc(NC(=O)c3cc4ccccc4s3)cc2)c(C)c1CC(=O)O [Compound 15]
Ki [1]: 300 pM

CCn1c(C(=O)Nc2ccc(Cn3nc(C)c(CC(=O)O)c3C)c(F)c2)cc2c(F)cccc21 [Compound 40]
Ki [1]: 400 pM

CCc1nn(Cc2ccc(NC(=O)c3cc4ccccc4n3C)cc2)c(CC)c1CC(=O)O [Compound 21]
Ki [1]: 300 pM

COc1cccc2cc(C(=O)Nc3ccc(Cn4nc(C)c(CC(=O)O)c4C)cc3)oc12 [Compound 9]
Ki [1]: 1200 pM

Cc1nn(Cc2ccc(NC(=O)c3cc4ccccc4[nH]3)cc2Cl)c(C)c1CC(=O)O [Compound 2]
Ki [1]: 500 pM

Cc1nn(Cc2ccc(NC(=O)c3cc4ccc(Cl)cc4o3)cc2)c(C)c1CC(=O)O [Compound 36]
Ki [1]: 200 pM

CCCn1c(C(=O)Nc2ccc(Cn3nc(C)c(CC(=O)O)c3C)c(F)c2)cc2ccccc21 [Compound 56]
Ki [1]: 200 pM

CCCn1c(C(=O)Nc2ccc(Cn3nc(C)c(CC(=O)O)c3C)c(F)c2)cc2cc(F)ccc21 [Compound 54]
Ki [1]: 200 pM

Cc1nn(Cc2ccc(NC(=O)c3cc4cc(F)ccc4[nH]3)cc2)c(C)c1CC(=O)O [Compound 12]
Ki [1]: 200 pM

COc1ccc2oc(C(=O)Nc3ccc(Cn4nc(C)c(CC(=O)O)c4C)cc3)cc2c1 [Compound 6]
Ki [1]: 600 pM

Cc1nn(Cc2ccc(NC(=O)c3coc4ccccc34)cc2)c(C)c1CC(=O)O [Compound 57]
Ki [2]: 8800 pM

CCn1c(C(=O)Nc2ccc(Cn3nc(C)c(CC(=O)O)c3C)cc2)cc2ccc(F)cc21 [Compound 29]
Ki [1]: 100 pM

CCCc1c(C(=O)Nc2ccc(Cn3nc(C)c(CC(=O)O)c3C)c(F)c2)oc2ccc(F)cc12 [Compound 52]
Ki [1]: 700 pM

CCc1nn(Cc2ccc(NC(=O)c3cc4cc(Cl)ccc4o3)cc2)c(CC)c1CC(=O)O [Compound 19]
Ki [1]: 200 pM

CCc1nn(Cc2ccc(NC(=O)c3cc4cc(F)ccc4[nH]3)cc2)c(CC)c1CC(=O)O [Compound 23]
Ki [1]: 300 pM

CCc1nn(Cc2ccc(NC(=O)c3cc4ccc(F)cc4[nH]3)cc2)c(CC)c1CC(=O)O [Compound 25]
Ki [1]: 200 pM

Cc1nn(Cc2ccc(NC(=O)c3oc4c(F)cccc4c3C)cc2F)c(C)c1CC(=O)O [Compound 50]
Ki [1]: 400 pM

CCCn1c(C(=O)Nc2ccc(Cn3nc(C)c(CC(=O)O)c3C)cc2)cc2ccc(F)cc21 [Compound 28]
Ki [1]: 100 pM

Cc1nn(Cc2ccc(NC(=O)c3cc4ccc(Cl)cc4o3)cc2F)c(C)c1CC(=O)O [Compound 39]
Ki [1]: 400 pM

Cc1nn(Cc2ccc(NC(=O)c3sc4ccc(F)cc4c3C)cc2F)c(C)c1CC(=O)O [Compound 46]
Ki [1]: 4500 pM

CCc1c(C(=O)Nc2ccc(Cn3nc(C)c(CC(=O)O)c3C)cc2)oc2c(F)cc(F)cc12 [Compound 35]
Ki [1]: 300 pM

Cc1nn(Cc2ccc(NC(=O)c3cc4ccccc4n3C)cc2)c(C)c1CC(=O)O [Compound 16]
Ki [1]: 800 pM

Cc1nn(Cc2ccc(NC(=O)c3oc4c(Cl)cccc4c3C)cc2F)c(C)c1CC(=O)O [Compound 37]
Ki [1]: 2200 pM
